Patent US10456405B2, “Nitric oxide-releasing prodrug molecule of substituted quinazolines” (ZHEJIANG HUAHAI PHARMACEUTICAL CO., LTD, priority 2015, dated 2019)
Where two headings read alike, the source gives them in different places.

Assays:
[1] = Release of nitric oxide in vitro (Griess reagent, nitrite); details: 10^−4 mol/L tested substance, phosphate buffer pH 7.4, cysteine 5 mmol/L, 37° C., 1 h; as nitrite
Method: Experiment 1. Experimental Study on the Tested Compounds for Releasing Nitric Oxide in vitro
Experimental Procedure: • (1) Preparation of Griess Reagent: 4 g of aminobenzenesulfonamide, 0.2 g of N-naphthyl ethylene diamine hydrochloride, and 10 mL of 85% phosphoric acid solution were taken to form a solution, which is diluted to 100 mL with distilled water. • (2) Plotting of the standard curve: a serie of standard solution of 0.01, 0.03, 0.05, 0.07, 0.09, 0.2, 0.4 μg/mL of nitrite nitrogen was prepared, 10 mL of each was taken to sufficiently mix with 2.5 mL of Griess reagent, standing at room temperature for 10 min, and its absorbance value at the wavelength of 540 nm was measured. The standard curve was plotted based on the resulting data. • (3) Measuring the amount of the released NO of the tested drug: all of the tested substances were dissolved in dimethylsulfoxide (1 mL) firstly. Then phosphate buffer (pH 7.4) was slowly added dropwise, and shaken. The drug solution was diluted to 50 mL, allowing the buffer solution to contain excess cysteine (5 mmol/L), and the final concentration of the tested substances being 10^−4 mol/L; the solution was incubated at 37° C. 2 mL of the reaction solution was taken to mix with 500 μl of Griess reagent at 1 h respectively, standing at room temperature for 10 min. The absorbance value of the mixture at 540 nm was measured. Isosorbide mononitrate was used as a positive control, and H130 was used as a negative control. The amount of the released NO was represented by the amount of its oxidation product, nitrite (NO2^−).

ApoA-I mRNA = experiment: Regulation of ApoA-I mRNA in HepG2 cells (real-time PCR); assay type: cell-based; parameters: key: Active: When 100 μM of the tested compound allowed ApoA-I mRNA in HepG2 cells to increase more than 15%, then the test compound was known as an ApoA active compound; details: 100 μM, 48 h, relative to DMSO control
Method: Experiment 5. Regulation of the Tested Compounds on ApoA-I mRNA HepG2 cells were cultured for 24 h in a 24-well plate with 400 μl of MEM medium containing 0.5% (v/v) of fetal bovine serum. Then each of the tested compounds (100 μM) and the positive control RVX-208 (100 μM) were added. The cells were cultured for another 48 h. The medium was aspirated out. After washing with 200 μl of PBS, 85 μl of cell lysis solution was added into the cells in each well. The cells were incubated at room temperature for 5 to 10 min to be completely dissolved and detached. The mRNA was extracted from the cells with a kit. The extracted mRNA were used for a real-time fluorescence quantitative PCR detection with RNA Fluorescence (RiboGreen) Quantitation Assay Kit and ApoA-I mRNA Primer-Probe Mixture from the company of Applied Biosystems.
After obtaining the Ct values, the induction fold of each test compound relative to DMSO control was calculated. The induction fold was used to reflect the ability of regulating ApoA-I mRNA for the tested compounds. When 100 μM of the tested compound allowed ApoA-I mRNA in HepG2 cells to increase more than 15%, then the test compound was known as an ApoA active compound.

[2] = rat, in vivo
Method: Experimental method: Intravenous injection solutions (the administration concentrations of the tested compounds were 1 mg/kg) and oral gastric perfusates (the administration concentrations of the test compounds were 5 mg/kg) of the test compounds were prepared, and intravenously and orally administered to three SD rats, respectively. The concentrations of the whole blood for H130 at 0.083 h, 0.25 h, 0.5 h, 1 h, 2 h, 4 h, 8 h, and 24 h after administration were determined by LC-MS/MS, respectively. The pharmacokinetic parameters were compared by a drug-time curve. Sample pretreatment: 150 μL of the whole blood to be tested was aspirated accurately. 600 μL of internal standard solution (diluted to 0.5 μg/mL with methanol) was added, sufficiently mixed by a vortex mixer, and centrifuged at 13000 r/min for 20 min at 4° C. 3 μL of the supernatant was taken into a sample vial.
Chromatographic conditions: C18 reversed-phase chromatographic column; gradient elution with mobile phase A: water/acetonitrile (v:v=95:5) with 0.025% of formic acid and 1 mM of ammonium acetate added thereto, and mobile phase B: acetonitrile/water (v:v=95:5) with 0.025% of formic acid and 1 mM of ammonium acetate added thereto.

[3] = Plasma stability in vitro, human plasma; details: for Content of Tested Substance (n = 2): human plasma, 2 μM, 37° C., in % (unit assumed)
Method: (§1) Experimental method: The tested compounds (2 μM) were added into mouse or human plasma, and incubated at 37° C. Samples were taken at 0, 10, 30, 60 and 120 min respectively. The reaction was stopped by adding a stop agent. The mixture was sufficient shaken, and centrifuged at 4000 rpm for 10 min at 4° C. The supernatant was taken. The concentrations of the tested compounds and their metabolite (H130) in the supernatant were measured by LC-MS/MS.

[4] = Plasma stability in vitro, mouse plasma; details: CD-1 mice plasma, 2 μM, 37° C., in % (unit assumed)
Method: as §1

apoE−/− mice = experiment: apoE−/− mouse atherosclerosis model, high-fat diet 10 weeks; assay type: in vivo
From the text: Experimental method: 36 eight-week-old male apoE-/- mice were selected and randomly divided into a blank administration group, an […] administration group, an […] administration group, an […] administration group, an […] administration group, and an […] administration group, 6 mice per group. The mice in each group were fed with high-fat diet for 10 weeks. At the beginning of the high-fat feeding, the mice in each group were administrated. Each tested compound was intragastric administered at the dose of 150 mg/kg twice a day. The blank administration group was given corresponding dose of saline. […] After the blood was taken, the serum, heart, and aorta were isolated. The levels of total cholesterol (TC), high density lipoprotein cholesterol (HDL-C), and low density lipoprotein cholesterol (LDL-C) in the serum of the mice in each group were measured by automatic biochemical analyzer. The ApoA1 expression level was detected with an ApoA1 kit. The content of NO in the serum of the mice was determined with a total NO test kit (Beyotime). The NOS activities of the heart, aorta, and serum were determined with an NOS test kit (Beyotime). The content of eNOS was calculated by the difference between the measured values determined before and after adding eNOS inhibitor L-NAME (Beyotime).

[5] = Release of HNO (headspace gas chromatography of nitrous oxide)
Method: Experiment 2. Experimental study on the tested compounds for releasing HNO HNO rapidly dimerizes and dehydrates to produce nitrous oxide in aqueous solution. In the experiment of detecting HNO, gas chromatographic headspace analysis is generally used to determine the amount of the released nitrous oxide, thereby indirectly detect the level of releasing HNO of the compound.
Experimental procedure: Each of the tested compounds was prepared to 20 mg/mL of mother liquor with DMF. Prior to the start of the experiment, 50 μL of drug mother liquor was placed into a 20 mL headspace sample vial. The tested compound was diluted by adding 5 mL of PBS buffer with pH 7.4. The temperature of the resulting sample was kept at 37° C. under argon gas for 90 min. Then the top gas was extracted for gas chromatographic analysis of nitrous oxide by using Angeli's Salt as a positive compound in the experiment.

db/db mice = experiment: Serum NO and heart eNOS in db/db mice after oral gavage; assay type: in vivo; details: blank = 100, oral gavage 150 mg/kg (isosorbide mononitrate 5 mg/kg), 1 h after administration (H101: 2 h)
From the text: Experimental method: 25 eight-week-old db/db mice (strain: BKS.Cg−+Leprdb/+leprdb/JclSlac; grade: SPF; gender: male; source: Shanghai SLAC Laboratory Animal Co., Ltd.) were selected. 3 of them were selected as the blank administration control. 2 mice were used as the positive drug control (isosorbide mononitrate). The remaining 20 mice were randomly divided into 5 groups, 4 mice per group, which are H101 administration group, H111 administration group, H116 administration group, H119 administration group, and H130 administration group. The tested compounds of the positive drug control group and each administration group were dissolved in DMSO. Then PEG400 was added. The mixture was shaken and mixed thoroughly. At last, 10% of HP-β-CD was added. The mixture was shaken and mixed thoroughly. The ratio of each solvent was DMSO: PEG400:10% of HP-β-CD=5:67.5:27.5. The administration group was administered by oral gavage at the dose of 150 mg/kg. The positive drug control group was administered at the dose of 5 mg/kg. The mice in the H101 administration group were sacrificed at 2 h after the administration. The mice in the remaining administration groups were sacrificed at 1 h after the administration. The blood was collected respectively into 1.5 mL centrifuge tube, standing at room temperature for more than 30 min, and then centrifuged (3000 rpm, 10 min). The supernatant serum was aspirated, and stored at −80° C. for testing. After the blood was collected, the heart was cut with the thoracic aorta. Three parts of the heart were weighed and placed into cryovials, rapidly frozen in liquid nitrogen, and cryopreserved at −80° C. for testing. The aorta and aortic arch were weighed, rapidly frozen in liquid nitrogen, and cryopreserved at −80° C. for testing. The content of NO in the serum of the […] mice was determined by a total NO test kit (Beyotime). The content of NOS in the heart of the mice was determined with an NOS test kit (Beyotime). The content of eNOS was calculated by the difference between the measured values before and after adding the eNOS inhibitor L-NAME (Beyotime).

[6] = blank administration group = 100, 150 mg/kg twice a day, 10 weeks
[7] = serum, high-fat diet 10 weeks, intragastric 150 mg/kg twice a day

For `COc1cc(OC)c2c(=O)[nH]c(-c3cc(C)c(OCCOC(=O)CNC(=O)CCCO[N+](=O)[O-])c(C)c3)nc2c1` [Compound H109, 2-[4-(5,7-dimethoxy-4-oxo-3,4-dihydro-quinazolin-2-yl)-2,6-dimethyl-phenoxy]-ethyl (4-nitroxy-butyrylamido)-acetate], the “Amount of Released No” value [1] was 1.49 µM and the “Upregulation of Apoa-I Mrna Level” value (ApoA-I mRNA) was “Active”.

For `COc1cc(OC)c2c(=O)[nH]c(-c3cc(C)c(OCCOC(=O)CC(N)C(=O)OCC(CO[N+](=O)[O-])O[N+](=O)[O-])c(C)c3)nc2c1.Cl` (centres unmarked) [Compound H118, 1-(2,3-dinitroxy-propyl) 4-{2-[4-(5,7-dimethoxy-4-oxo-3,4-dihydro-quinazolin-2-yl)-2,6-dimethyl-phenoxy]-ethyl}2-amino-succinate hydrochloride], the “release of prototype compound H130 after administration” value [2] was “can be rapidly released”, the “AUCRatio (Dosage Calibration)” value ([2]; iv, 1 mg/kg) was 19.2% and the “AUCRatio (Dosage Calibration)” value ([2]; po, 5 mg/kg) was 14.1%. For the same compound, the “Amount of Released No” value [1] was 1.74 µM and the “Upregulation of Apoa-I Mrna Level” value (ApoA-I mRNA) was “Active”.

For `COc1cc(OC)c2c(=O)[nH]c(-c3cc(C)c(OCCOC(=O)CCC(CO[N+](=O)[O-])O[N+](=O)[O-])c(C)c3)nc2c1` (centres unmarked) [Compound H108, 2-[4-(5,7-dimethoxy-4-oxo-3,4-dihydro-quinazolin-2-yl)-2,6-dimethyl-phenoxy]-ethyl 4,5-dinitroxy-pentanoate], the “Content of Tested Substance (n = 2)” value ([3]; 0 min) was 100.0, the “Content of Tested Substance (n = 2)” value ([3]; 10 min) was 101.5 and the “Content of Tested Substance (n = 2)” value ([3]; 30 min) was 95.5. The “Content of Tested Substance (n = 2)” value ([3]; 60 min) was 93.8, the “Content of Tested Substance (n = 2)” value ([3]; 120 min) was 85.3 and the “stability in human plasma” value ([3]; within 2 h) was “good stability”. The “Content of Tested Substance (n = 2)” value ([4]; 0 min) was 100.0, the “Content of Tested Substance (n = 2)” value ([4]; 10 min) was 0.5 and the “Content of Tested Substance (n = 2)” value ([4]; 30 min) was 0.3. The “Content of Tested Substance (n = 2)” value ([4]; 60 min) was 1.7, the “Content of Tested Substance (n = 2)” value ([4]; 120 min) was 0.3 and the “Amount of Released No” value [1] was 0.33 µM. For the same compound, the “Upregulation of Apoa-I Mrna Level” value (ApoA-I mRNA) was “Active”.

For `COc1cc(OC)c2c(=O)[nH]c(-c3cc(C)c(OCCO)c(C)c3)nc2c1` [Compound H130, 2-(4-(2-hydroxyethoxy)-3,5-dimethylphenyl)-5,7-dimethoxyquinazoline-4(3H)-one, reference compound], the “Aorta eNOS” value (apoE−/− mice; [6]) was 105%, the ApoA1 (apoE−/− mice; [6]) was 130% and the “Heart eNOS” value (apoE−/− mice; [6]) was 115%. The “Serum NO” value (apoE−/− mice; [6]) was 108%, the “Serum eNOS” value (apoE−/− mice; [6]) was 107% and the HDL-C (apoE−/− mice; [7]) was 86 ± 13 mg/dL. The LDL-C (apoE−/− mice; [7]) was 273 ± 33 mg/dL, the TC (apoE−/− mice; [7]) was 1005 ± 44 mg/dL and the “Molar Quantities of N2O/Sample” value ([5]; PBS pH 7.4, 37° C., argon, 90 min) was −0.15%. The HNO release detected ([5]; within 1.5 h) was “no HNO release can be detected”, the “Amount of Released No” value [1] was -1.03 µM and the “Heart eNOS” value (db/db mice) was 123%. For the same compound, the “Serum NO” value (db/db mice) was 111%.

For `COc1cc(OC)c2c(=O)[nH]c(-c3cc(C)c(OCCOC(=O)CCC(=O)OCC(CO[N+](=O)[O-])(CO[N+](=O)[O-])CO[N+](=O)[O-])c(C)c3)nc2c1` [Compound H106, 2-[4-(5,7-dimethoxy-4-oxo-3,4-dihydro-quinazolin-2-yl)-2,6-dimethyl-phenoxy]-ethyl 3-(nitroxy)-2,2-di((nitroxy)methyl) propyl succinate], the “Amount of Released No” value [1] was 2.56 µM and the “Upregulation of Apoa-I Mrna Level” value (ApoA-I mRNA) was “Active”.
